Experiment: excess molar enthalpy (molar enthalpy of mixing); xn = mol fraction of the nth substance listed
Settings: Liquid, Flow calorimetry

CCOC=O [ethyl methanoate] + CCCO
excess molar enthalpy [kcal/mol]
Settings	298.15 K	308.15 K
5000 kPa, x1 = 0.0488	0.0707	–
5000 kPa, x1 = 0.1003	0.15	–
5000 kPa, x1 = 0.1515	0.212	–
5000 kPa, x1 = 0.1993	0.258	–
5000 kPa, x1 = 0.2498	0.297	–
5000 kPa, x1 = 0.3	0.324	–
5000 kPa, x1 = 0.3498	0.344	–
5000 kPa, x1 = 0.3992	0.359	–
5000 kPa, x1 = 0.4512	0.363	–
5000 kPa, x1 = 0.5	0.361	–
5000 kPa, x1 = 0.5513	0.353	–
5000 kPa, x1 = 0.5995	0.341	–
5000 kPa, x1 = 0.6501	0.323	–
5000 kPa, x1 = 0.7003	0.297	–
5000 kPa, x1 = 0.7502	0.265	–
5000 kPa, x1 = 0.7998	0.225	–
5000 kPa, x1 = 0.849	0.181	–
5000 kPa, x1 = 0.9006	0.124	–
5000 kPa, x1 = 0.9491	0.0666	–
10000 kPa, x1 = 0.0487	0.0792	0.0703
10000 kPa, x1 = 0.1	0.158	–
10000 kPa, x1 = 0.1511	0.22	0.221
10000 kPa, x1 = 0.1988	0.266	0.269
10000 kPa, x1 = 0.2492	0.303	0.309
10000 kPa, x1 = 0.2993	0.331	0.34
10000 kPa, x1 = 0.349	0.35	0.361
10000 kPa, x1 = 0.4013	0.363	0.376
10000 kPa, x1 = 0.4504	0.37	0.383
10000 kPa, x1 = 0.4992	0.368	0.382
10000 kPa, x1 = 0.5505	0.361	0.374
10000 kPa, x1 = 0.5987	0.348	0.359
10000 kPa, x1 = 0.6493	0.329	0.337
10000 kPa, x1 = 0.6996	0.302	0.311
10000 kPa, x1 = 0.7496	0.27	0.276
10000 kPa, x1 = 0.7993	0.232	0.234
10000 kPa, x1 = 0.8513	0.184	0.185
10000 kPa, x1 = 0.9003	0.132	0.134
10000 kPa, x1 = 0.949	0.072	0.0643

Reference: the NIST ThermoML archive (doi:10.1016/j.jct.2005.04.015)
